One data set concerns the target T1, Androgen receptor (Homo sapiens, UniProt P10275).
T1 sequence (P10275 whole entry): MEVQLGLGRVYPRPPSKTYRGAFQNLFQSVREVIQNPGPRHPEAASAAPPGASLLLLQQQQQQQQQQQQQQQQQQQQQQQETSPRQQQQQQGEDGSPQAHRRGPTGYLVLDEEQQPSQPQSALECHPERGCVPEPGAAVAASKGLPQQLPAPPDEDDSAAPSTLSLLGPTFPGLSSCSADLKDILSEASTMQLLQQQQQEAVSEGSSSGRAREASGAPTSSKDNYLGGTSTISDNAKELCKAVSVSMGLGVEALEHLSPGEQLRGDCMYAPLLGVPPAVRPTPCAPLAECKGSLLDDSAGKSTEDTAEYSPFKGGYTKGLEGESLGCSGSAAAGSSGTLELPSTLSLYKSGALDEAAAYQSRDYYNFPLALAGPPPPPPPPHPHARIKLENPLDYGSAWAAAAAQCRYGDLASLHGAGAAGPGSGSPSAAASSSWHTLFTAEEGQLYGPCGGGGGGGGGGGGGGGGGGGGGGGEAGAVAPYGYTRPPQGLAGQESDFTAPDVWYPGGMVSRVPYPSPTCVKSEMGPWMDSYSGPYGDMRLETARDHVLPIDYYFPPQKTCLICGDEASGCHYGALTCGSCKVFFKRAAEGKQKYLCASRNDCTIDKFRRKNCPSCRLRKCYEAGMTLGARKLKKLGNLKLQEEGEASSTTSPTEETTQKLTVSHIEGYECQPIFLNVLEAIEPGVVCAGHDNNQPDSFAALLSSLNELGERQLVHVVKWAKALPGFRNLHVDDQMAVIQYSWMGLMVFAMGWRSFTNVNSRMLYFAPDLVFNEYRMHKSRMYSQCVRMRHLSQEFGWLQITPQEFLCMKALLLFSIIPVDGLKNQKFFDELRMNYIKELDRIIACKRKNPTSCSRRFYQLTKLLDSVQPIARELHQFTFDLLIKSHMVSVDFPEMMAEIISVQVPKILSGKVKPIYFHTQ
Put plainly: Antagonist activity at Androgen receptor in human LNCaP cells expressing ARR2PB-eGFP incubated for 3 days by fluorescence based assay.

Data set [1] is described as follows: Antiproliferative activity against human LNCaP-EnzR cells assessed as inhibition of cell proliferation incubated for 3 days by MTT assay. To be noted: 72 h. On the technique in general: Tetrazolium dyes change colour on reduction, which living cells bring about.
The nature of data set [2]: Antiproliferative activity against mouse 3T3 cells incubated for 3 days by MTT assay. As to conditions: NIH3T3 cells.
The next data set concerns LNCaP. Put plainly: Antiproliferative activity against human LNCaP cells assessed as inhibition of cell proliferation incubated for 3 days by MTT assay. To be noted: 72 h.

As a reminder, the IC50 is the point on the concentration scale where inhibition reaches its midpoint.

As to `CC(=O)Cc1nsc(NC(=O)/C=C/c2ccc(C(F)(F)F)cc2)n1`, half-maximal inhibition at Androgen receptor (IC50) was put at 16 µM.
For the compound `CNC(=O)c1ccc(N2C(=S)N(c3ccc(C#N)c(C(F)(F)F)c3)C(=O)C2(C)C)cc1F` [ENZALUTAMIDE], the half-inhibitory concentration (IC50) is more than 50 µM in data set [1] and 15.8 µM in the data set with LNCaP. Also, the 50% inhibitory concentration (IC50) at 3 days in data set [2] was more than 50 µM.

(Values after ChEMBL document CHEMBL6153085, “Discovery of N-(1,2,4-Thiadiazol-5-yl)benzo[b]oxepine-4-carboxamide Derivatives as Novel Antiresistance Androgen Receptor Antagonists” (J Med Chem, 2025).)
